pEC50: −log10 of the molar value.

The assay deals with LXRα and/or LXRβ. As to the kind of experiment: LXR/LXRE co-transfection assay (luciferase reporter, CV-1 cells). Format: cell-based, human. The note with it: IC50 or EC50 for LXR (LXRα and/or LXRβ, not distinguished), tested as described in Example 109, CV-1 cells. An outline of the steps: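 Luciferase readout after 20 h compound exposure at 37 °C in CV-1 cells transiently expressing human LXRα or LXRβ with RXRα and an LXRE-driven reporter. Dose-response over 8 points at ½-log spacing, 4 wells each, fitted for EC50/IC50; values average ≥3 independent experiments, efficacy as % of high control.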
(In a reporter assay the amount or activity of a reporter protein is the signal.)
In general, pEC50 refers to the EC50 on a negative log10 scale, so that one unit is a factor of ten. Higher therefore signals a small EC50. The compound `O=C(O)CNC(=O)c1ccc(-c2cc(C(F)(F)F)nn2-c2ccccc2Cl)cc1` [Example 1362, N-({4-[1-(2-chlorophenyl)-3-(trifluoromethyl)-1H-pyrazol-5-yl]phenyl}carbonyl)glycine] gave a pEC50 of 5.00 to 6.00.

In turn, `CS(=O)(=O)c1cccc(-c2ccc(-c3cc(C(F)(F)F)nn3-c3ccccc3Cl)cc2CN2CCOCC2)c1` [Example 1148] had a pEC50 of 5.00 to 6.00.

`CC(C)(O)c1cc(-c2ccc(-c3cccc(S(C)(=O)=O)c3)s2)n(-c2cccnc2Cl)n1` [Example 1273, 2-[1-(2-chloropyridin-3-yl)-5-{5-[3-(methylsulfonyl)phenyl]-2-thienyl}-1H-pyrazol-3-yl]propan-2-ol] showed a negative logarithm of the EC50 (pEC50) above 6.00.

With `CS(=O)(=O)c1cccc(-c2ccc(-c3cc(C(=O)N4CCCC4)nn3-c3c(Cl)cccc3Cl)c(Cl)c2)c1` [Example 143, (5-(3-chloro-3′-(methylsulfonyl)biphenyl-4-yl)-1-(2,6-dichlorophenyl)-1H-pyrazol-3-yl)(pyrrolidin-1-yl)methanone], the negative-log EC50 (pEC50) is above 6.00.

Consider `CS(=O)(=O)c1cccc(-c2ccc(-c3cc(C(=O)NCC(F)(F)F)nn3-c3c(Cl)cccc3Cl)c(Cl)c2)c1` [Example 1397, 5-(3-chloro-3′-(methylsulfonyl)biphenyl-4-yl)-1-(2,6-dichlorophenyl)-N-(2,2,2-trifluoroethyl)-1H-pyrazole-3-carboxamide], for which the pEC50 is above 6.00.

In the case of `CS(=O)(=O)c1cccc(-c2ccc(-c3c(Cl)c(C(=O)NCC(F)(F)F)nn3-c3cccnc3C(F)(F)F)c(Cl)c2)c1` [Example 1403, 4-chloro-5-(3-chloro-3′-(methylsulfonyl)biphenyl-4-yl)-N-(2,2,2-trifluoromethyl)-1-(2-(trifluoromethyl)pyridin-3-yl)-1H-pyrazole-3-carboxamide], the pEC50 is above 6.00.

Turning to `CC(C)(O)c1cc(-c2c(F)cccc2Cl)n(-c2ccc(-c3cccc(S(C)(=O)=O)c3)cc2Cl)n1` [Example 130, 2-(1-(3-chloro-3′-(methylsulfonyl)biphenyl-4-yl)-5-(2-chloro-6-fluorophenyl)-1H-pyrazol-3-yl)propan-2-ol], the pEC50 is above 6.00.

In turn, `Cc1cccc(C)c1-n1nc(C(C)(C)O)cc1-c1ccc(-c2cccc(S(C)(=O)=O)c2)s1` [Example 1352, 2-[1-(2,6-dimethylphenyl)-5-{5-[3-(methylsulfonyl)phenyl]-2-thienyl}-1H-pyrazol-3-yl]propan-2-ol] gave a pEC50 above 6.00.

Compound `CC(C)(O)c1cc(-c2ccc(-c3cccc(S(C)(=O)=O)c3)s2)n(-c2cc(C(F)(F)F)ccc2Cl)n1` [Example 1347, 2-(1-[2-chloro-5-(trifluoromethyl)phenyl]-5-{5-[3-(methylsulfonyl)phenyl]-2-thienyl}-1H-pyrazol-3-yl)propan-2-ol] gave a pEC50 of 5.00 to 6.00.

`CC(C)(O)c1cc(-c2ccc(-c3cccc(S(C)(=O)=O)c3)s2)n(-c2ccc(F)cc2F)n1` [Example 1265, 2-[1-(2,4-difluorophenyl)-5-{5-[3-(methylsulfonyl)phenyl]-2-thienyl}-1H-pyrazol-3-yl]propan-2-ol] showed a pEC50 above 6.00.

`Cc1cc(NCCN2CCCCC2)ccc1-c1cc(C(C)(C)O)nn1-c1c(Cl)cccc1Cl` [Example 1405, 2-(1-(2,6-dichlorophenyl)-5-(2-methyl-4-(2-(piperidin-1-yl)ethylamino)phenyl)-1H-pyrazol-3-yl)propan-2-ol] had a pEC50 below 5.00.

`Cc1cc(-c2cccc(S(C)(=O)=O)c2)ccc1-c1cc(C(=O)N2CCCC2)nn1-c1c(Cl)cccc1Cl` [Example 148, (1-(2,6-dichlorophenyl)-5-(3-methyl-3′-(methylsulfonyl)biphenyl-4-yl)-1H-pyrazol-3-yl)(pyrrolidin-1-yl)methanone] gave a pEC50 above 6.00.

Regarding `CN(C)CCNC(=O)c1cccc(-c2ccc(-c3cc(C(C)(C)O)nn3-c3ccccc3Cl)cc2)c1` [Example 1293, 4′-[1-(2-chlorophenyl)-3-(1-hydroxy-methylethyl)-1H-pyrazol-5-yl]-N-[2-(dimethylamino)ethyl]biphenyl-3-carboxamide], the pEC50 was 5.00 to 6.00.

Consider `CC(=O)c1cc(-c2ccccc2Cl)n(-c2ccc(-c3cccc(S(C)(=O)=O)c3)cn2)n1` [Example 1248, 1-[5-(2-chlorophenyl)-1-(5-[3-(methylsulfonyl)phenyl]pyridin-2-yl}-1H-pyrazol-3-yl]ethanone], for which the pEC50 was 5.00 to 6.00.

`Cc1c(C(C)(C)O)nn(-c2ccccc2Cl)c1-c1ccc(-c2cccc(S(C)(=O)=O)c2)s1` [Example 1301, 2-[1-(2-chlorophenyl)-4-methyl-5-{5-[3-(methylsulfonyl)phenyl]-2-thienyl}-1H-pyrazol-3-yl]propan-2-ol] gave a negative logarithm of the EC50 (pEC50) above 6.00.

`CC(C)(C(=O)O)c1cccc(-c2ccc(-c3cc(C(F)(F)F)nn3Cc3ccc(Cl)s3)s2)c1` [Example 1166, 2-[3-(5-{1-[(5-chloro-2-thienyl)methyl]-3-(trifluoromethyl)-1H-pyrazol-5-yl}-2-thienyl)phenyl]-2-methylpropanoic acid] showed a pEC50 above 6.00.

`CC(C)(O)c1cccc(-c2ccc(-c3cc(C(=O)NCC(F)(F)F)nn3-c3ccccc3Cl)s2)c1` [Example 1276, 1-(2-chlorophenyl)-5-{5-[3-(1-hydroxy-1-methylethyl)phenyl]-2-thienyl}-N-(2,2,2-trifluoroethyl)-1H-pyrazole-3-carboxamide] showed a pEC50 of 5.00 to 6.00.

`CC(C)(O)c1nn(-c2cccc(F)c2Cl)c(-c2ccc(-c3cccc(S(C)(=O)=O)c3)s2)c1Br` [Example 1372, 2-[4-bromo-1-(2-chloro-3-fluorophenyl)-5-{5-[3-(methylsulfonyl)phenyl]-2-thienyl}-1H-pyrazol-3-yl]propan-2-ol] gave a negative-log EC50 (pEC50) above 6.00.

Regarding `CC(=O)c1cc(-c2ccccc2Cl)n(-c2ccc(-c3cccc(S(C)(=O)=O)c3)cc2)n1` [Example 1224, 1-{5-(2-chlorophenyl)-1-[3′-(methylsulfonyl)biphenyl-4-yl]-1H-pyrazol-3-yl}ethanone], the pEC50 is above 6.00.

Take `CC(C)(O)c1cc(-c2ccc(-c3cccc(S(C)(=O)=O)c3)s2)n(-c2cnccc2C(F)(F)F)n1` [Example 1351, 2-(5-{5-[3-(methylsulfonyl)phenyl]-2-thienyl}-1-[4-(trifluoromethyl)pyridin-3-yl]-1H-pyrazol-3-yl)propan-2-ol]: the negative-log EC50 (pEC50) was 5.00 to 6.00.

In the case of `CC(C)(O)c1cc(-c2ccc(-c3cccc(S(C)(=O)=O)c3)cc2)n(-c2cnccc2C(F)(F)F)n1` [Example 108, 2-(5-(3′-(methylsulfonyl)biphenyl-4-yl)-1-(4-(trifluoromethyl)pyridin-3-yl)-1H-pyrazol-3-yl)propan-2-ol], the pEC50 was 5.00 to 6.00.

As to `CC(C)(O)c1cc(-c2ccc(-c3cccc(S(C)(=O)=O)c3)s2)n(-c2ccccc2C(F)(F)F)n1` [Example 1158, 2-(5-{5-[3-(methylsulfonyl)phenyl]-2-thienyl}-1-[2-(trifluoromethyl)phenyl]-1H-pyrazol-3-yl)propan-2-ol], the pEC50 is above 6.00.

The compound `CC(C)(O)c1nn(-c2ccccc2Cl)c(-c2ccc(-c3cccc(S(C)(=O)=O)c3)s2)c1F` [Example 1319, 2-[1-(2-chlorophenyl)-4-fluoro-5-{5-[3-(methylsulfonyl)phenyl]-2-thienyl}-1H-pyrazol-3-yl]propan-2-ol] gave a negative logarithm of the EC50 (pEC50) above 6.00.

As for `CS(=O)(=O)c1cccc(-c2ccc(-c3cc(CN4CCCC4)nn3-c3ccccc3Cl)s2)c1` [Example 456, 1-(2-chlorophenyl)-5-{5-[3-(methylsulfonyl)phenyl]-2-thienyl}-3-(pyrrolidin-1-ylmethyl)-1H-pyrazole], the negative-log EC50 (pEC50) was 5.00 to 6.00.

`CC(C)NC(=O)Oc1cccc(-c2ccc(-c3cc(C(C)(C)O)nn3-c3ccccc3Cl)cc2)c1` [Example 1296, 4′-[1-(2-chlorophenyl)-3-(1-hydroxy-1-methylethyl)-1H-pyrazol-5-yl]biphenyl-3-yl (1-methylethyl)carbamate] gave a pEC50 of 5.00 to 6.00.

For the compound `CC(C)(O)c1cc(-c2c(Cl)cccc2Cl)n(-c2ccc(-c3cccc(S(C)(=O)=O)c3)cc2Cl)n1` [Example 124, 2-(1-(3-chloro-3′-(methylsulfonyl)nbiphenyl-4-yl)-5-(2,6-dichlorophenyl)-1H-pyrazol-3-yl)propan-2-ol], the negative-log EC50 (pEC50) is above 6.00.

Consider `Cc1cc(-c2cccc(S(C)(=O)=O)c2)ccc1-c1cc(C(C)(C)O)nn1-c1c(Cl)cccc1Cl` [Example 147, 2-(1-(2,6-dichlorophenyl)-5-(3-methyl-3′-(methylsulfonyl)biphenyl-4-yl)-1H-pyrazol-3-yl)propan-2-ol], for which the pEC50 is above 6.00.

The compound `CN1CCN(C(=O)c2cc(-c3ccc(-c4cccc(S(C)(=O)=O)c4)s3)n(-c3ccccc3Cl)n2)CC1` [Example 508, 1-{[1-(2-chlorophenyl)-5-{5-[3-(methylsulfonyl)phenyl]-2-thienyl}-1H-pyrazole-3-yl]carbonyl}-4-methylpiperazine] had a pEC50 of 5.00 to 6.00.

`CC(C)(O)c1cc(-c2cccc(F)c2F)n(-c2ccc(-c3cccc(S(C)(=O)=O)c3)cc2Cl)n1` [Example 131, 2-(1-(3-chloro-3′-(methylsulfonyl)biphenyl-4-yl)-5-(2,3-difluorophenyl)-1H-pyrazol-3-yl)propan-2-ol] showed a negative logarithm of the EC50 (pEC50) above 6.00.

“2-[1-(2-chlorophenyl)-5-{5-[3-(methylsulfonyl)phenyl]pyridin-2-yl}-1H-pyrazol-3-yl]propan-2-ol [Example 79]”: the negative-log EC50 (pEC50) is below 5.00.

In the case of `CS(=O)(=O)c1cccc(-c2ccc(-c3cc(C(=O)N4CCCC4)nn3-c3ccccc3C(F)(F)F)s2)c1` [Example 1210, 5-{5-[3-(methylsulfonyl)phenyl]-2-thienyl}-3-(pyrrolidin-1-ylcarbonyl)-1-[2-(trifluoromethyl)phenyl]-1H-pyrazole], the negative logarithm of the EC50 (pEC50) is above 6.00.

In turn, `O=C(NC1CCSC1=O)c1ccc(-c2cc(C(F)(F)F)nn2-c2ccccc2Cl)cc1` (centres unmarked) [Example 1355, 4-[1-(2-chlorophenyl)-3-(trifluoromethyl)-1H-pyrazol-5-yl]-N-(2-oxotetrahydro-3-thienyl)benzamide] showed a pEC50 of 5.00 to 6.00.

The record behind these values is patent publication US8703805B2 (Exelixis Patent Company LLC, priority 2005, dated 2014).
